Patent publication US20240366524A1, “COMPOSITION AND METHOD FOR TREATING OR PREVENTING INFECTIONS” (CHITOGEL LIMITED, priority 2021, published 2024)
“Also recorded” adds a separate entry of the source.

Assays:
C. propinquum = test: Planktonic growth of nasal clinical isolates (OD 595 nm, 24 h); format: cell-based, Corynebacterium propinquum
Protocol: (§1) The effect of glycerol on bacterial growth was determined by analysis of nasal bacterial isolates from subjects participating in the trial described in Example 3. The bacterial isolates were cultured for 24 hours in Nutrient Broth (NB) and Brain-Heart Infusion (BHI) which further contained glycerol in an amount of either 20% v/v, or 40% v/v, or 0% glycerol (control).
(§2) A total of 22 nasal clinical isolates including C. accolens (n=4), C. propinquum(n=3), C. pseudodiptheriticum (n=3), S. epidermidis (n=4), S. aureus (n=4) and P. aeruginosa (n=4) were used in this experiment. Prior to starting experiments, isolates were grown in tryptic soya agar (TSA) and incubated at 37° C. under aerobic conditions for 24 hours, except for C. accolens which was incubated for 48 hours.
Glycerol at 20% was prepared by dilution in nutrient broth (NB) media. Glycerol treatments at 20% concentrations were prepared in a 96-well microtitration plate containing 50 μL NB. A single colony of bacterial isolates such as C. accolens, C. propinquum, C. pseudodiptheriticum, S. epidermidis, S. aureus and P. aeruginosa from overnight cultures was suspended with 0.9% saline (aqueous NaCl) to McFarland standard of 0.5 and diluted 1:100 in NB growth media. […] After incubation, the planktonic bacterial growth was determined by measuring the optical density (OD) at 595 nm using microplate absorbance reader (iMark™, BIO-RAD). […]

S. aureus [1] = test: Cellulose disk on nutrient agar survival test (Example 6); format: cell-based; conditions: 48 h aerobic
From the text: (§3) The growth of S. aureus and P. aeruginosa in the presence of glycerol, chitosan-dextran polymer, or a combination of glycerol and chitosan-dextran polymer, was investigated according to the following methodology: • (A) Cellulose disks (approximately 1 cm in diameter) pre-soaked in S. aureus or P. aeruginosa cultures were placed on the surface of sterile nutrient agar plates. A test substance was placed on top of the soaked disks to allow contact with both the nutrient agar and a test substance. An untreated control agar plate contained only the soaked cellulose disk, with no test substance applied. The test substances were as described in Example 5, namely: (1) 20% v/v glycerol in water; (2) CS-DA-GLY; and (3) CS-DA. All test and control cellulose disk plates were incubated for 48±1 hours at conditions appropriate for each microorganism (e.g. aerobic conditions for S. aureus and P. aeruginosa, and anaerobic conditions for C. acnes). Following incubation, the cellulose disks were each aseptically removed from the agar surface and the microorganism contents of the cellulose disks were individually extracted using sterile phosphate-buffered saline solution. Each of the resulting microorganism suspensions were serially diluted 1:10 in sterile phosphate-buffered saline solution and 1.000 mL of the appropriate dilutions were plated in singlet to sterile growth media appropriate for the target test microorganism. Following incubation for 72 hours 40 minutes at conditions appropriate for each microorganism, the surviving test microorganisms were recorded for each test and control plate. • (B) The same methodology as (A) was performed, but the cellulose disk plates additionally included the supernatant of a C. acnes culture that was grown on a substrate comprising 20% glycerol. […]

P. aeruginosa [2] = test: as above; format: cell-based; conditions: 48 h aerobic
From the text: as §3, with “Following incubation, the cellulose disks were each aseptically removed from the agar surface and the microorganism contents of the cellulose disks were individually extracted using sterile phosphate-buffered saline solution. Each of the resulting microorganism suspensions were serially diluted 1:10 in sterile phosphate-buffered saline solution and 1.000 mL of the appropriate dilutions were plated in singlet to sterile growth media appropriate for the target test microorganism.” left out

S. epidermidis = test: Planktonic growth of nasal clinical isolates (OD 595 nm, 24 h); format: cell-based, Staphylococcus epidermidis
Protocol: as §1, §2
(§4) Glycerol at 20% was prepared by dilution in nutrient broth (NB) media. Glycerol treatments at 20% concentrations were prepared in a 96-well microtitration plate containing 50 μL NB. A single colony of bacterial isolates such as C. accolens, C. propinquum, C. pseudodiptheriticum, S. epidermidis, S. aureus and P. aeruginosa from overnight cultures was suspended with 0.9% saline (aqueous NaCl) to McFarland standard of 0.5 and diluted 1:100 in NB growth media. Next, 50 μL of the diluted bacterial suspension was then added to the treatments in each well and incubated aerobically for 24 hours at 37° C. A negative control (media without bacteria and treatment) and untreated growth control (media with bacteria but no treatment) were used in this assay. After incubation, the planktonic bacterial growth was determined by measuring the optical density (OD) at 595 nm using microplate absorbance reader (iMark™, BIO-RAD). For each bacterial strain, six replicate experiments were performed to assess bacterial growth.

C. acnes = test: Cellulose disk on nutrient agar survival test (Example 5); format: cell-based; conditions: 48 hours incubation, anaerobic; glycerol as 20% in water
From the text: The growth of C. acnes in the presence of glycerol, chitosan-dextran polymer (CS-DA), and a combination of glycerol and chitosan-dextran polymer (CS-DA-GLY) was investigated according to the following methodology: • Cellulose disks (approximately 1 cm in diameter) pre-soaked in C. acnes culture were placed on the surface of sterile nutrient agar plates. A test substance was placed on top of the soaked disks to allow contact with both the nutrient agar and a test substance. An untreated control agar plate contained only the soaked cellulose disk, with no test substance applied. The test substances were: (1) 20% glycerol in water; (2) a composition comprising aldehyde-derivatised dextran polymer cross linked with N-succinyl chitosan polymer, an aqueous phosphate buffer and approximately 20% v/v glycerol, prepared according to the description above in Example 2 (herein referred to as CS-DA-GLY); and (3) a composition comprising aldehyde-derivatised dextran polymer cross linked with N-succinyl chitosan polymer, and an aqueous phosphate buffer (herein referred to as CS-DA). That is, the composition of test substances (2) and (3) differ only in the presence and absence of glycerol. […] Following incubation for 112 hours 5 minutes at conditions appropriate for the microorganism, the surviving test microorganisms were recorded for each test and control plate.

[3] = test system: commensal and pathogenic bacterial isolates; test: Planktonic growth of nasal clinical isolates (OD 595 nm, 24 h), all isolates; format: cell-based
Protocol: as §1, §2, §4

C. accolens = test: Planktonic growth of nasal clinical isolates (OD 595 nm, 24 h); format: cell-based; conditions: NB and BHI
Protocol: as §1, §2, §4

P. aeruginosa [4] = test: as above; format: cell-based
Protocol: as §1, §2, §4

S. aureus [5] = test: as above; format: cell-based
Protocol: as §1, §2, §4

C. pseudodiphtheriticum = test: as above; format: cell-based, Corynebacterium pseudodiphtheriticum
Protocol: as §1, §2, §4

[6] = 20% v/v glycerol, media (NB and BHI)
[7] = test set A, no C. acnes supernatant, glycerol as 20% v/v in water
[8] = 20% glycerol, Nutrient Broth, 24 hours

Structure (SMILES): OCC(O)CO [glycerol]
- growth of C. propinquum compared to control (C. propinquum; [6]): inhibited
- growth of C. propinquum (C. propinquum; 40% v/v glycerol, NB and BHI): significant inhibitory effect
- growth of S. aureus compared to control (S. aureus [1]; [7]): decrease
- growth of S. aureus compared to control (S. aureus [1]; test set B, comprising C. acnes supernatant (method b251: culture grown on 20% glycerol substrate)): decrease
- growth of S. aureus compared to control (S. aureus [1]; test set C, comprising C. acnes supernatant (method b251: glycerol-free substrate; b254: grown in the presence of glycerol)): decrease
- growth of P. aeruginosa compared to control (P. aeruginosa [2]; [7]): decrease
- growth of P. aeruginosa compared to control (P. aeruginosa [2]; test set C, with C. acnes supernatant (grown in the presence of glycerol)): much more substantial decrease; also recorded: reduction
- planktonic growth of S. epidermidis vs untreated growth control (S. epidermidis; [8]): significantly inhibit; also recorded: significantly reduced
- growth of S. epidermidis compared to control (S. epidermidis; [6]): inhibited
- growth of S. epidermidis (S. epidermidis; 40% v/v glycerol, NB and BHI): significant inhibitory effect
- growth (percent survival) of C. acnes compared to untreated control (C. acnes): supported
- growth of commensal and pathogenic bacterial isolates ([3]; 20% glycerol, BHI broth): significantly inhibit
- growth of commensal and pathogenic bacterial isolates ([3]; 40% glycerol, BHI broth): significantly inhibit
- growth of commensal and pathogenic bacterial isolates ([3]; 40% glycerol, NB): significantly inhibit
- growth of C. accolens compared to control (C. accolens; 20% v/v glycerol): either unaffected or promoted
- growth of C. accolens (C. accolens; 40% v/v glycerol): significant inhibitory effect
- planktonic growth of P. aeruginosa vs untreated growth control (P. aeruginosa [4]; [8]): significantly inhibit; also recorded: significantly reduced
- growth of P. aeruginosa compared to control (P. aeruginosa [4]; [6]): inhibited
- growth of P. aeruginosa (P. aeruginosa [4]; 40% v/v glycerol, NB and BHI): significant inhibitory effect
- planktonic growth of S. aureus vs untreated growth control (S. aureus [5]; [8]): significantly reduced; also recorded: significantly inhibit
- growth of S. aureus compared to control (S. aureus [5]; [6]): inhibited
- growth of S. aureus (S. aureus [5]; 40% v/v glycerol, NB and BHI): significant inhibitory effect
- planktonic growth of C. pseudodiphtheriticum vs untreated growth control (C. pseudodiphtheriticum; [8]): significantly inhibit; also recorded: significantly reduced
- growth of C. pseudodiphtheriticum compared to control (C. pseudodiphtheriticum; [6]): inhibited
- growth of C. pseudodiphtheriticum (C. pseudodiphtheriticum; 40% v/v glycerol, NB and BHI): significant inhibitory effect
